The source of these data is US7618641B2, “Functionally reconstituted viral membranes containing adjuvant” (priority 2003, dated 2009).

For the test, the system named is influenza proteins (A/Panama/2007/99). Format: in vivo, Balb/C mice. The note with it: intranasal, day 0 and 14, 5 μg influenza proteins, lipopeptide in reconstituted membranes.

Turning to “N-palmitoyl-S-2,3(bispalmitoyloxy)-propyl-cysteinyl-seryl-(lysil)3-lysine [lysine derivative]”, the “enhancement of the immune response” value is listed as “approximately equivalent enhancement of the immune response”.

Regarding “N-palmitoyl-S-2,3(bispalmitoyloxy)-propyl-cysteinyl-seryl-(prolyl)3-proline [proline derivative]”, the “enhancement of the immune response” value is “approximately equivalent enhancement of the immune response”.
